Source: patent US8063098B2, “GlyT1 receptor antagonists” (Hoffmann-La Roche Inc., priority 2008, dated 2011)

Target: T1, mGlyT-1b (Mus musculus, UniProt P28571)
T1 construct: host or cells: Flp-in-CHO
T1 sequence (P28571 1-651 isoform P28571-2): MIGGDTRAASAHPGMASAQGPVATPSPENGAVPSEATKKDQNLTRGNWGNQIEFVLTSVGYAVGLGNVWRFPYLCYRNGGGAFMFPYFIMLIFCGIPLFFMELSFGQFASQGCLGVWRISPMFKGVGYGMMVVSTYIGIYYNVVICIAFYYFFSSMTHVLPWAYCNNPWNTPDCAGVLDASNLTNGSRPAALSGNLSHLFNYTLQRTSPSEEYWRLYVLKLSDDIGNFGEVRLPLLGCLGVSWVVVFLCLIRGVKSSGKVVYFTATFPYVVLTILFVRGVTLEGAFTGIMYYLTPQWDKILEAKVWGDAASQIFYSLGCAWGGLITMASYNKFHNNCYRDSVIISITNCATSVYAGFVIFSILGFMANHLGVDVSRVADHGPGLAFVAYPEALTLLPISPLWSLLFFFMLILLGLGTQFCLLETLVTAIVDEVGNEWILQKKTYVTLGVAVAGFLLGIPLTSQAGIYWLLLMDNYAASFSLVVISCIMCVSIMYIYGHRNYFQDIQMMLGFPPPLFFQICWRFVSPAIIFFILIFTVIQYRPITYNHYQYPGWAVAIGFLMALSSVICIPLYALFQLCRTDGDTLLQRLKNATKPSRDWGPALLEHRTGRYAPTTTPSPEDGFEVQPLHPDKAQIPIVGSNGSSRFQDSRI
Assay: Glycine uptake inhibition assay (mGlyT-1b), [3H]-glycine uptake in Flp-in-CHO cells
Assay type: cell-based
Conditions: Flp-in-CHO cells stably transfected with mGlyT1b cDNA, 20 min at 22° C. preincubation
Protocol: Nutrient mixture F-12 (Gibco Life-technologies), fetal bovine serum (FBS) 5%, (Gibco life technologies), Penicillin/Streptomycin 1% (Gibco life technologies), Hygromycin 0.6 mg/ml (Gibco life technologies), Glutamine 1 mM Gibco life technologies) • Uptake buffer (UB): 150 mM NaCl, 10 mM Hepes-Tris, pH 7.4, […], 2.5 mM KCl, 2.5 mM MgSO4, 10 mM (+) D-glucose. • Flp-in™-CHO (Invitrogen Cat n° R758-07) cells stably transfected with mGlyT1b cDNA. Glycine Uptake Inhibition Assay (mGlyT-1b)
On day 1 mammalian cells, (Flp-in™-CHO), transfected with mGlyT-1b cDNA, were plated at the density of 40,000 cells/well in complete F-12 medium, without hygromycin in 96-well culture plates. On day 2, the medium was aspirated and the cells were washed twice with uptake buffer (UB). The cells were then incubated for 20 min at 22° C. with either (i) no potential competitor, (ii) 10 mM non-radioactive glycine, (iii) a concentration of a potential inhibitor. A range of concentrations of the potential inhibitor was used to generate data for calculating the concentration of inhibitor resulting in 50% of the effect (e.g. IC50, the concentration of the competitor inhibiting glycine uptake of 50%). A solution was then immediately added containing [^3H]-glycine 60 nM (11-16 Ci/mmol) and 25 μM non-radioactive glycine. The plates were incubated with gentle shaking and the reaction was stopped by aspiration of the mixture and washing (three times) with ice-cold UB. The cells were lysed with scintillation liquid, shaken 3 hours and the radioactivity in the cells was counted using a scintillation counter.

Row | Structure (SMILES) | IC50 [µM]
1 | CSc1cc(C(F)(F)F)ccc1C(=O)NC(c1ccccc1)C1(N2CCN(C3CC3)CC2)CCC1 (stereo not drawn) [Example 72, N-{[1-(4-Cyclopropyl-piperazin-1-yl)-cyclobutyl]-phenyl-methyl}-2-methylsulfanyl-4-trifluoromethyl-benzamide] | 0.0494
2 | COc1cc(C(F)(F)F)cc(SC)c1C(=O)NC(c1ccccc1)C1(N2CCSCC2)CCC1 (stereo not drawn) [Example 66, 2-Methoxy-6-methylsulfanyl-N-[phenyl-(1-thiomorpholin-4-yl-cyclobutyl)-methyl]-4-trifluoromethyl-benzamide] | 0.0915
3 | COc1cc(C(F)(F)F)cc(SC)c1C(=O)NC(c1ccccc1)C1(N2CCCCC2)CCC1 (stereo not drawn) [Example 49, 2-Methoxy-6-methylsulfanyl-N-[phenyl-(1-piperidin-1-yl-cyclobutyl)-methyl]-4-trifluoromethyl-benzamide] | 0.0237
4 | Cc1cc(F)ccc1C(=O)NC(c1ccccc1)C1(N2CCCC2)CCC1 (stereo not drawn) [Example 57, 4-Fluoro-2-methyl-N-[phenyl-(1-pyrrolidin-1-yl-cyclobutyl)-methyl]-benzamide] | 0.0596
5 | O=C(NC(c1ccccc1)C1(N2CCCC2)CCC1)c1ccccc1C(F)(F)F (stereo not drawn) [Example 44, N-[Phenyl-(1-pyrrolidin-1-yl-cyclobutyl)-methyl]-2-trifluoromethyl-benzamide] | 0.0951
6 | COc1cc(C(F)(F)F)cc(SC)c1C(=O)NC(c1ccccc1)C1(N2CCCC2)CCC1 (stereo not drawn) [Example 12, 2-Methoxy-6-methylsulfanyl-N-[phenyl-(1-pyrrolidin-1-yl-cyclobutyl)-methyl]-4-trifluoromethyl-benzamide] | 0.0112
7 | O=C(NC(c1ccccc1)C1(N2CCCC2)CCC1)c1ccc(Cl)cc1C(F)(F)F (stereo not drawn) [Example 54] | 0.0275
8 | CSc1cc(C(F)(F)F)cc(C(F)(F)F)c1C(=O)NC(c1ccccc1)C1(N2CCCC2)CC1 (stereo not drawn) [Example 6, 2-Methylsulfanyl-N-[phenyl-(1-pyrrolidin-1-yl-cyclopropyl)-methyl]-4,6-bis-trifluoromethyl-benzamide] | 0.0683
9 | COc1cc(C(F)(F)F)cc(SC)c1C(=O)NC(c1ccccc1)C1(N2CC3(COC3)C2)CCC1 (stereo not drawn) [Example 75, 2-Methoxy-6-methylsulfanyl-N-{[1-(2-oxa-6-aza-spiro[3.3]hept-6-yl)-cyclobutyl]-phenyl-methyl}-4-trifluoromethyl-benzamide] | 0.0261
10 | COc1cc(C(F)(F)F)cc(SC)c1C(=O)NC(c1ccccc1)C1(N(C)C)CCC1 (stereo not drawn) [Example 51, N-[(1-Dimethylamino-cyclobutyl)-phenyl-methyl]-2-methoxy-6-methylsulfanyl-4-trifluoromethyl-benzamide] | 0.0142
11 | CSc1cc(C(F)(F)F)cc(O)c1C(=O)NC(c1ccccc1)C1(N2CCCC2)CCC1 (stereo not drawn) [Example 69, 2-Hydroxy-6-methylsulfanyl-N-[phenyl-(1-pyrrolidin-1-yl-cyclobutyl)-methyl]-4-trifluoromethyl-benzamide] | 0.0095
12 | COc1cc(C(F)(F)F)cc(SC)c1C(=O)NC(c1ccccc1)C1(N2CCCC2)CCC1 (single isomer, unassigned; (+)) [Example 33, (+)-2-Methoxy-6-methylsufanyl-N-[phenyl-(1-pyrrolidin-1-yl-cyclobutyl)-methyl]-4-trifluoromethyl-benzamide] | 0.00847
13 | COc1cc(C(F)(F)F)cc(SC)c1C(=O)NC(c1ccccc1)C1(N2CCCC2)CCC1 (single isomer, unassigned; (+)) [Example 32, (+)-2-Methoxy-6-methylsulfanyl-N-[phenyl-(1-pyrrolidin-1-yl-cyclobutyl)-methyl]-4-trifluoromethyl-benzamide] | 0.0225
14 | O=C(NC(c1ccccc1)C1(N2CCCC2)CCC1)c1ccc(Cl)cc1Cl (stereo not drawn) [Example 43, 2,4-Dichloro-N-[phenyl-(1-pyrrolidin-1-yl-cyclobutyl)-methyl]-benzamide] | 0.0669
15 | O=C(NC(c1ccccc1)C1(N2CCCC2)CCC1)c1ccc(C(F)(F)F)cc1Br (stereo not drawn) [Example 52, 2-Bromo-N-[phenyl-(1-pyrrolidin-1-yl-cyclobutyl)-methyl]-4-trifluoromethyl-benzamide] | 0.0127
16 | CSc1cc(C(F)(F)F)ccc1C(=O)NC(c1ccccc1)C1(N2CC3(COC3)C2)CCC1 (stereo not drawn) [Example 74, 2-Methylsulfanyl-N-{[1-(2-oxa-6-aza-spiro[3.3]hept-6-yl)-cyclobutyl]-phenyl-methyl}-4-trifluoromethyl-benzamide] | 0.0101
17 | COc1cc(Cl)ccc1C(=O)NC(c1ccccc1)C1(N2CCCC2)CCC1 (stereo not drawn) [Example 47, 4-Chloro-2-methoxy-N-[phenyl-(1-pyrrolidin-1-yl-cyclobutyl)-methyl]-benzamide] | 0.0724
18 | COc1cc(C(F)(F)F)cc(SC)c1C(=O)NC(c1cccc(F)c1)C1(N2CCCC2)CCC1 (stereo not drawn) [Example 56, N-[(3-Fluoro-phenyl)-(1-pyrrolidin-1-yl-cyclobutyl)-methyl]-2-methoxy-6-methylsulfanyl-4-trifluoromethyl-benzamide] | 0.0135
